From ChEMBL document CHEMBL5212743, “Selectivity Literature for EUbOPEN Chemogenomics Library wave 3” (2023)

Key:
[1] = molecular target: T1, Homeodomain-interacting protein kinase 4 (Homo sapiens) (UniProt Q8NE63); experiment: Selectivity interaction (KinomeScan (DiscoverX)) EUB0000544a HIPK4; conditions: at 1 µM
T1 sequence (whole entry): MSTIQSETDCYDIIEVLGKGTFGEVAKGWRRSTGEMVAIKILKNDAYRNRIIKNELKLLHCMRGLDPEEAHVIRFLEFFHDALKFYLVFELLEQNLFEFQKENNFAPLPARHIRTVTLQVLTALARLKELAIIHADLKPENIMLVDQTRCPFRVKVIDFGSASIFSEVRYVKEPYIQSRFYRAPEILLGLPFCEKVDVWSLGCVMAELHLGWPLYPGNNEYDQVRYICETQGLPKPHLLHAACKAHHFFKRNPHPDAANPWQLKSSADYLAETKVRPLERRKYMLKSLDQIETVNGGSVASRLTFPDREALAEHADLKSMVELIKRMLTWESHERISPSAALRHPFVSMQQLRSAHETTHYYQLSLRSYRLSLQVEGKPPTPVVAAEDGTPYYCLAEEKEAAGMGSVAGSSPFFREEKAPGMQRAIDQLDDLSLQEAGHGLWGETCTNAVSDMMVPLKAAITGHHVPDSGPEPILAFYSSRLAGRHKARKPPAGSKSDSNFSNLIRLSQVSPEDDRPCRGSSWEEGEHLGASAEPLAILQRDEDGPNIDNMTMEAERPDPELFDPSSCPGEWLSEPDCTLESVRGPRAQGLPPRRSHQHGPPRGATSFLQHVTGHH

[2] = molecular target: T2, Gamma-aminobutyric acid receptor subunit alpha-1 (Homo sapiens, UniProt P14867); experiment: Selectivity interaction (GPCR panel (PDSP screen)) EUB0000544a GABRA1
T2 sequence (P14867 whole entry): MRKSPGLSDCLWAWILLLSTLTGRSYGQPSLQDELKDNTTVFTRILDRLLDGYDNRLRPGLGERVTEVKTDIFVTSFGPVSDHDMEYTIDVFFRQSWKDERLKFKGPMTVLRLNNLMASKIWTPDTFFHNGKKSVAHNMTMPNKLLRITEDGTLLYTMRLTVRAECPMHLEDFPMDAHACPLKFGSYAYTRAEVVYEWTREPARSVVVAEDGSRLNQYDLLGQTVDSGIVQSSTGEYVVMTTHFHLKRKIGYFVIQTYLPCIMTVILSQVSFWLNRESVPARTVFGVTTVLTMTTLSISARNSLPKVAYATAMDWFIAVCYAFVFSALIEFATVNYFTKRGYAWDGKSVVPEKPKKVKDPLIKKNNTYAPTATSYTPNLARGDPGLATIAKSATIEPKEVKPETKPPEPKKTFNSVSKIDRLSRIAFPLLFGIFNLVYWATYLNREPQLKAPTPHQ

[3] = molecular target: T3, Alpha-2B adrenergic receptor (Homo sapiens) (UniProt P18089); experiment: Selectivity interaction (CEREP panel (Eurofins, binding assay)) EUB0000544a ADRA2B; conditions: at 10 µM
T3 sequence (whole entry): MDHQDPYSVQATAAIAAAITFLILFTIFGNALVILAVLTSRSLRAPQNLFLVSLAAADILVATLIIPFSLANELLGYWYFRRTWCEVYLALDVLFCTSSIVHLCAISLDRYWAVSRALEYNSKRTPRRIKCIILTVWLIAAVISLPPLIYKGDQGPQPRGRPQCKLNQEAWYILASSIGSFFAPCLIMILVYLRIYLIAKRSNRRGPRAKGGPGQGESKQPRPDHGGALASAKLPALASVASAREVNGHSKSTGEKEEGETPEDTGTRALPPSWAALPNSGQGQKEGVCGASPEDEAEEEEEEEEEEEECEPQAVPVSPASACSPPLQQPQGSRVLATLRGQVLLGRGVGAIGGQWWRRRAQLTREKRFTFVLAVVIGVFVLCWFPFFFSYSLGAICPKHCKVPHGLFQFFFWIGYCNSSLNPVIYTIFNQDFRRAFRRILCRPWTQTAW

[4] = molecular target: T4, Adenosine receptor A3 (Homo sapiens) (UniProt P0DMS8); experiment: Selectivity interaction (CEREP panel (Eurofins, binding assay)) EUB0000544a ADORA3; conditions: at 10 µM
T4 sequence (whole entry): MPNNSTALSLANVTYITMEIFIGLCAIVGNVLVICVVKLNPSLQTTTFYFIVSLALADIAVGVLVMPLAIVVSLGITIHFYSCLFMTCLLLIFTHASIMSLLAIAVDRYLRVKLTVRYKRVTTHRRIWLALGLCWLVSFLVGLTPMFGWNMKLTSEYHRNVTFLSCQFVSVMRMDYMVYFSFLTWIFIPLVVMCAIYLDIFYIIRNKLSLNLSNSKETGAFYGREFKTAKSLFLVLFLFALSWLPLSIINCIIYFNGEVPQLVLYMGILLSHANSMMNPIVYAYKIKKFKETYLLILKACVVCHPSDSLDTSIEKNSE

[5] = molecular target: T3, Alpha-2B adrenergic receptor (Homo sapiens); experiment: Selectivity interaction (CEREP panel (Eurofins, enzymes and uptake assays)) EUB0000544a ADRA2B; conditions: at 10 µM
[6] = molecular target: Translocator protein (Homo sapiens) (UniProt P30536); experiment: Selectivity interaction (CEREP panel (Eurofins, binding assay)) EUB0000544a TSPO; conditions: at 10 µM
[7] = molecular target: T4, Adenosine receptor A3 (Homo sapiens); experiment: Selectivity interaction (CEREP panel (Eurofins, enzymes and uptake assays)) EUB0000544a ADORA3; conditions: at 10 µM
D(3) dopamine receptor = D(3) dopamine receptor (Homo sapiens, UniProt P35462); experiment: Selectivity interaction (GPCR panel (PDSP screen)) EUB0000746a DRD3
[8] = molecular target: T5, Alpha-1D adrenergic receptor (Homo sapiens, UniProt P25100); experiment: Selectivity interaction (GPCR panel (PDSP screen)) EUB0000746a ADRA1D
T5 sequence (P25100 whole entry): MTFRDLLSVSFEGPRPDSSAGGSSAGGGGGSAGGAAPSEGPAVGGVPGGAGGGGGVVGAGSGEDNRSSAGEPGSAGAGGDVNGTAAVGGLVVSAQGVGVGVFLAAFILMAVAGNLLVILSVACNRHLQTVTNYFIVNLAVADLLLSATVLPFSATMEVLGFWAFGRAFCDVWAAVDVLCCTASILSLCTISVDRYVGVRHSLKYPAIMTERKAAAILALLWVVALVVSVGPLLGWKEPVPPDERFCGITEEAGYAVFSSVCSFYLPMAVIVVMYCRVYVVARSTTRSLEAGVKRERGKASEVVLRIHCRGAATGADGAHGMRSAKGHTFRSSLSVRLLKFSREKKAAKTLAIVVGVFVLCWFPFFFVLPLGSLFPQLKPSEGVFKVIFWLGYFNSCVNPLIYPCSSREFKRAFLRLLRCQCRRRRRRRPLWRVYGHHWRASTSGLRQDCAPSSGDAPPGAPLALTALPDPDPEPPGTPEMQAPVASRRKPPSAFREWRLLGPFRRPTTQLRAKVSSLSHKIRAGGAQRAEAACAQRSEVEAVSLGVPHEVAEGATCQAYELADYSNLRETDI

[9] = molecular target: T6, Mitogen-activated protein kinase 12 (Homo sapiens) (UniProt P53778); experiment: Selectivity interaction (KinomeScan (DiscoverX)) EUB0000746a MAPK12; conditions: at 1 µM
T6 sequence (whole entry): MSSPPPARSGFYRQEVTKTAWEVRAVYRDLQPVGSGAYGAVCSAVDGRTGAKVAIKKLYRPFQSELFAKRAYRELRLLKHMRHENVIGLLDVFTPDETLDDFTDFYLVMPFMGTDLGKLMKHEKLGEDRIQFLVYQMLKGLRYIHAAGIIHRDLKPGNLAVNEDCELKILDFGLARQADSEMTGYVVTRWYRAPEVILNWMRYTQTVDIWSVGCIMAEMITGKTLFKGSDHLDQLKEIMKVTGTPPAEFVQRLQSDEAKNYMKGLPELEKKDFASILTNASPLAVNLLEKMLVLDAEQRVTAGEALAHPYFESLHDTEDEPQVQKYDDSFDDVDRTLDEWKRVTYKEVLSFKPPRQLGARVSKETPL

[10] = molecular target: Phosphatidylinositol 4,5-bisphosphate 3-kinase catalytic subunit alpha isoform (Homo sapiens, UniProt P42336); experiment: Selectivity interaction (KinomeScan (DiscoverX)) EUB0000746a PIK3CA; conditions: at 1 µM
[11] = molecular target: Calcium/calmodulin-dependent protein kinase type 1B (Homo sapiens, UniProt Q6P2M8); experiment: Selectivity interaction (KinomeScan (DiscoverX)) EUB0000746a PNCK; conditions: at 1 µM
[12] = molecular target: Serine/threonine-protein kinase PRP4 homolog (Homo sapiens) (UniProt Q13523); experiment: Selectivity interaction (KinomeScan (DiscoverX)) EUB0000264b PRPF4B; conditions: at 10 µM
[13] = molecular target: T7, Myosin-IIIb (Homo sapiens) (UniProt Q8WXR4); experiment: Selectivity interaction (KinomeScan (DiscoverX)) EUB0000264b MYO3B; conditions: at 10 µM
T7 sequence (whole entry): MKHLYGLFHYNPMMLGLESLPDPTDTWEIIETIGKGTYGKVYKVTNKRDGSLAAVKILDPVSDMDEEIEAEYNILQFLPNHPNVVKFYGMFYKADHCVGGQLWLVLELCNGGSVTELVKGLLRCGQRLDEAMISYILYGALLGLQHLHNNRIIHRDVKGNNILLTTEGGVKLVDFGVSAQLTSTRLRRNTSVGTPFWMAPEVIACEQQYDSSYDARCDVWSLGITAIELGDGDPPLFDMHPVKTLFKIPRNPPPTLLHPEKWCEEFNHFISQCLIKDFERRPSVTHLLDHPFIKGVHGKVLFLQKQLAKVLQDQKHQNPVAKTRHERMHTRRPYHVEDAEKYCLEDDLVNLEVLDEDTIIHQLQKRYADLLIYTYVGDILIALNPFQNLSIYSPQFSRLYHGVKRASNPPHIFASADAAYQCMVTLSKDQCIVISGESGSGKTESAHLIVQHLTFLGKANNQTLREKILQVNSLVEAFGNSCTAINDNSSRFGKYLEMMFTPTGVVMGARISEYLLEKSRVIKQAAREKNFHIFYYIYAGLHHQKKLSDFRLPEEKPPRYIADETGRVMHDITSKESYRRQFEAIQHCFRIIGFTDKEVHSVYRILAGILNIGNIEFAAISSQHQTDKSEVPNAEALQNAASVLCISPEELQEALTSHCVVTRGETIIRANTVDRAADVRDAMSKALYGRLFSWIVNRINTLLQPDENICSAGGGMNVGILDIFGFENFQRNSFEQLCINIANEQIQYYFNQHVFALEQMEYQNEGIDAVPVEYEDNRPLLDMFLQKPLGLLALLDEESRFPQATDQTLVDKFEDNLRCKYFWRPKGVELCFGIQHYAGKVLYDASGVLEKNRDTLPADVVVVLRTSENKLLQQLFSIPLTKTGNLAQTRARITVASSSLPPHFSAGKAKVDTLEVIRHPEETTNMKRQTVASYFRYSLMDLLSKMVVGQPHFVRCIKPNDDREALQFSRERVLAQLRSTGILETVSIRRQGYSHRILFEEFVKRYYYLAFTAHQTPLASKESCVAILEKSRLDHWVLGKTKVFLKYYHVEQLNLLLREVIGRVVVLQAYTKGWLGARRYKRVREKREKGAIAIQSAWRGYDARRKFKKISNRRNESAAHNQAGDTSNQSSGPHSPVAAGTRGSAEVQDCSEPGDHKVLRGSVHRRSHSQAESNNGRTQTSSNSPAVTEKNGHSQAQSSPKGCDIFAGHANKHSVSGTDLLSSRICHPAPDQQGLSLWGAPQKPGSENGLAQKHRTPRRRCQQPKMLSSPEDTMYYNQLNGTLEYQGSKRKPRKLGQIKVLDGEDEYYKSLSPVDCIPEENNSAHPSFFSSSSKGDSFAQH

[14] = molecular target: T2, Gamma-aminobutyric acid receptor subunit alpha-1; experiment: Selectivity interaction (GPCR panel (PDSP screen)) EUB0000264b GABRA1

Chain of Serine/threonine-protein kinase PRP4 homolog (Homo sapiens) (Q13523 whole entry): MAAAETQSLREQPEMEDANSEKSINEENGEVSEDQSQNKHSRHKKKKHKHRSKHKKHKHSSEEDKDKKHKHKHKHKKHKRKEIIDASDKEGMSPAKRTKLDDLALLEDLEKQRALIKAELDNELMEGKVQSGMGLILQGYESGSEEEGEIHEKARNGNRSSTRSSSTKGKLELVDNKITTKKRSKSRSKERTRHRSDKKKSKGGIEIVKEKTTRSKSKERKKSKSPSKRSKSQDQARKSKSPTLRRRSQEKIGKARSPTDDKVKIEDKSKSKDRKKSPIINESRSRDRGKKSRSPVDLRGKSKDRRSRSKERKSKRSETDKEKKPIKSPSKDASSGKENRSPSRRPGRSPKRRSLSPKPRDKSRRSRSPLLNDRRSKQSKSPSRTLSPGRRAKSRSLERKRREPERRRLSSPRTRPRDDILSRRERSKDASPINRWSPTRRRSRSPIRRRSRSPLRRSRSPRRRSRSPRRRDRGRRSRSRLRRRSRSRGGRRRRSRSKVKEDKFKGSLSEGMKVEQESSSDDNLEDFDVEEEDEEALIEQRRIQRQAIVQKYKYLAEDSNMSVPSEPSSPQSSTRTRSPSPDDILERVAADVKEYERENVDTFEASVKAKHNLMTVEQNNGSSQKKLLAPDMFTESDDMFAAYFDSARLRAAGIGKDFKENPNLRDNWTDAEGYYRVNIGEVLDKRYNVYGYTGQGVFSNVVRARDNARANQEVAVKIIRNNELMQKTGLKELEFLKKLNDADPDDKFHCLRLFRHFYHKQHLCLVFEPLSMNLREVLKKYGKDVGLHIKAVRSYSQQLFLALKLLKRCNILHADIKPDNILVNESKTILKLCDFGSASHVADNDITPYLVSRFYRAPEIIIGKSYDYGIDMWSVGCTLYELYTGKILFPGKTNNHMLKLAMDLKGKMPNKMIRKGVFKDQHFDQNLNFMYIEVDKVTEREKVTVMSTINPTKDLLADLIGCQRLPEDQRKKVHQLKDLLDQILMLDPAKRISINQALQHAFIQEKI
Chain of D(3) dopamine receptor (P35462 whole entry): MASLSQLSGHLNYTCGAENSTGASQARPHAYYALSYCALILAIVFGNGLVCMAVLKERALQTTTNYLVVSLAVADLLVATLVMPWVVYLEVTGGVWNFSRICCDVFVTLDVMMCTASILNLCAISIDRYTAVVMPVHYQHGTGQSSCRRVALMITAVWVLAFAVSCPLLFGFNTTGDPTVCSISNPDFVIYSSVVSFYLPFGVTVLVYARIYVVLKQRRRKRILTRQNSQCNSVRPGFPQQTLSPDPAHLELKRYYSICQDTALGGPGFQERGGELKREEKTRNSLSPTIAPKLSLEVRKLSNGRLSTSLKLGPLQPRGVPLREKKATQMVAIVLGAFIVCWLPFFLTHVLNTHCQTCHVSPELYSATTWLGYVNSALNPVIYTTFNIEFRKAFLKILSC
Chain of Calcium/calmodulin-dependent protein kinase type 1B (Q6P2M8 whole entry): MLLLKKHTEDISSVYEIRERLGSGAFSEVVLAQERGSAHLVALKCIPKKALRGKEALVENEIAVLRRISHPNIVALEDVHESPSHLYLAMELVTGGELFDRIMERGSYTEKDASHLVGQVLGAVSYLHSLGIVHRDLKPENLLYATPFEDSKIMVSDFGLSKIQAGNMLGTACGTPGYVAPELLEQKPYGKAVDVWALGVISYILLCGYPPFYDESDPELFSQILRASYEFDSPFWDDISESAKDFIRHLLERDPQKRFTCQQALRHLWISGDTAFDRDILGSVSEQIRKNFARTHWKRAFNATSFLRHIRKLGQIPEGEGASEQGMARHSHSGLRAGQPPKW
Chain of Translocator protein (Homo sapiens) (P30536 whole entry): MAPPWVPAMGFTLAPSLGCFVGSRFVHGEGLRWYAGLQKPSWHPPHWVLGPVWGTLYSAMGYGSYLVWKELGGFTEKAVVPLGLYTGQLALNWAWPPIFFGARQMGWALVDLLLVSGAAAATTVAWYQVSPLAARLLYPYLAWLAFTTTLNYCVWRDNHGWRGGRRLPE
Chain of Phosphatidylinositol 4,5-bisphosphate 3-kinase catalytic subunit alpha isoform (P42336 whole entry, canonical isoform): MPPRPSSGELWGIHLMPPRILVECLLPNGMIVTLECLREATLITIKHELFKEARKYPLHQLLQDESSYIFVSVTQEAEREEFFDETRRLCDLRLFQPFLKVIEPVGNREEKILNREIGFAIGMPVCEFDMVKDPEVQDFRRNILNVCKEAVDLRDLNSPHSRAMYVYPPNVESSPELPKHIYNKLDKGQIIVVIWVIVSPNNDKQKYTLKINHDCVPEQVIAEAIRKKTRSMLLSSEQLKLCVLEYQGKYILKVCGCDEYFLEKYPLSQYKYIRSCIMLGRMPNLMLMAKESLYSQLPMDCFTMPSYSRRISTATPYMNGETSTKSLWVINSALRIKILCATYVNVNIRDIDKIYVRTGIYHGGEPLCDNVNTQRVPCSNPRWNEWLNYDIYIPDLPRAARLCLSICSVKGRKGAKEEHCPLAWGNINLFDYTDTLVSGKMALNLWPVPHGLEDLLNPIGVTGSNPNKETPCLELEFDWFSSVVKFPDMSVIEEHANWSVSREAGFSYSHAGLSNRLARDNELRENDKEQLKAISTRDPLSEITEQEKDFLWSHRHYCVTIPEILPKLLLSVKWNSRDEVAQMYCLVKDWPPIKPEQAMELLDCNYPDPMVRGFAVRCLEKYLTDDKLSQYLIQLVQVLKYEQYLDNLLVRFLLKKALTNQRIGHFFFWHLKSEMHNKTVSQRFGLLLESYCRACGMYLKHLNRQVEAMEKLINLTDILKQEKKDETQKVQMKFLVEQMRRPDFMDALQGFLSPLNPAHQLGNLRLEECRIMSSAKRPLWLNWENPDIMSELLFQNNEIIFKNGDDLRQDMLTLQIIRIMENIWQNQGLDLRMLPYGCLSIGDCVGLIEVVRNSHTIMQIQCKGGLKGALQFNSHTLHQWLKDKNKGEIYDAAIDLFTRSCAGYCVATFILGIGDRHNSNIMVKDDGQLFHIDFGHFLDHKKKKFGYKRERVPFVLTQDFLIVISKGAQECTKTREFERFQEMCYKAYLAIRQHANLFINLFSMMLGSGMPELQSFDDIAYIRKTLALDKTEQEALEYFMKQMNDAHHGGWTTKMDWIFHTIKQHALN

With COc1ccc2c(c1)O[C@@H](c1ccc(OC)c(OC)c1)C[C@H]2NC(=O)C1(c2ccc3c(c2)OC(F)(F)O3)CC1 [A-1596586] the % of control [1] was 51%, the Ki [2] was 0.0196 µM and the % of inhibition [3] was 63.5%. For the same molecule, the % of inhibition [4] was 63.9%, the % of inhibition [5] was 63.5% and the % of inhibition [6] was 95.5%. For the same molecule, the % of inhibition [7] was 63.9%.

Work on O=C(NS(=O)(=O)c1ccc(NCC2CCOCC2)c([N+](=O)[O-])c1)c1ccc(N2CCN(Cc3ccc(C(F)(F)F)cc3-c3ccc(Cl)cc3)CC2)cc1Oc1cnc2[nH]ccc2c1 [A-1210227] yielded a Ki (D(3) dopamine receptor) of over 10 µM, a Ki [8] of over 10 µM and a % of control [9] of 50%. It also gave a % of control [10] of 50% and a % of control [11] of 0%.

Molecule COc1ccc2c(c1)O[C@H](c1ccc(OC)c(OC)c1)C[C@@H]2NC(=O)C1(c2ccc3c(c2)OC(F)(F)O3)CC1 [A-1596584] has a % of control [12] of 56%, a % of control [13] of 39% and a Ki [14] of 0.218 µM.
